Experimental findings from the METLIN SMRT retention time set (Domingo-Almenara et al. 2019) are described below.

A short description of this data set: gradient 5% acetonitrile 3 min, to 50% in 2 min, to 85% in 15 min, held 3 min, 100 µL/min. The conditions noted are these: column: Zorbax Extend-C18 2.1 x 50 mm; eluents: water / acetonitrile, 0.1% formic acid. The gist of the method: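 Values are retention times taken from adduct peaks that software picked and an analyst inspected. The pure standards were run as mixtures of ~100 molecules on HPLC linked to a quadrupole time-of-flight mass spectrometer, in positive and negative ionization mode. A Zorbax Extend-C18 column (2.1 × 50 mm, 1.8 μm) was used at 100 μL/min with water and acetonitrile, each including 0.1% formic acid.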
The molecule `Cc1ccc(C)c(-c2csc(Nc3ccccn3)n2)c1` gave an RP-LC retention time of 821 s.

Molecule `CN(C)c1nccnc1OC1CCN(C(=O)C2CCCCC2)C1` (stereo not given) registered an RP-LC retention time of 765 s.

In turn, `CCS(=O)(=O)c1nc2ccc(NS(=O)(=O)c3ccc(C4CCCCC4)cc3)cc2s1` showed an RP-LC retention time of 1120 s.

Molecule `O=C(Cn1c(=O)oc2ccccc21)N1C[C@@H](CO)[C@H](c2ccccn2)C1` displayed an RP-LC retention time of 591 s.

`O=C(CSc1ccncc1)N1CC2CN(S(=O)(=O)c3cccc(F)c3)CC(C1)O2` displayed an RP-LC retention time of 600 s.

As to `CCOCCCNC(=O)NC1CCN(c2nc3ccccc3n(C)c2=O)CC1`, the RP-LC retention time came to 690 s.

In the case of `COc1ccc(CCC(=O)NCCc2cn(C)c3ncccc23)cc1`, the RP-LC retention time turned out to be 669 s.

On to `C=C(C)CNc1nc(-c2ccccc2)c(-c2ccccc2)s1`, for which the RP-LC retention time turned out to be 1040 s.

`Cc1cc(NC(=O)Cn2c(-c3ccc(F)cc3)ncc(C#N)c2=O)ccc1Br` gave an RP-LC retention time of 1080 s.

Molecule `Cc1cccc(NC(=O)Nc2nccn(-c3ccc4c(c3)CCC4)c2=O)c1` came in with an RP-LC retention time of 1140 s.

In turn, `Cc1nc2ccccn2c(=O)c1Cc1nnc(SCc2cc(=O)c3cccc(C)c3[nH]2)n1C` had an RP-LC retention time of 599 s.

The molecule `Cc1ccc(-c2csc(NC(=O)CCc3nc(CSc4nc5ccc(C)cc5[nH]4)no3)n2)cc1` registered an RP-LC retention time of 852 s.

Molecule `O=S(=O)(Nc1ccc(F)cc1)c1cccc(-c2nc(-c3ccccc3)no2)c1` returned an RP-LC retention time of 1120 s.

`CN(CC(=O)N1CCN(c2cccc(Cl)c2)CC1)S(=O)(=O)c1c[nH]c(C(=O)N2CCCC2)c1` registered an RP-LC retention time of 834 s.

On to `CCOc1ccc2nc(C(=O)NC(C)(C)C)cn2n1`, for which the RP-LC retention time was determined as 802 s.

Consider `O=C(NCc1ccccc1)C(=O)c1c[nH]c2ccccc12`, for which the RP-LC retention time came to 605 s.

The molecule `CCN(CC)C(=O)CN1CCN(c2cc(C(=O)O)c3cc(NC(=O)C(C)(C)C)ccc3n2)CC1` gave an RP-LC retention time of 572 s.

For the molecule `CC(C)n1c(=O)c(NCCc2ccc(Cl)cc2)nc2ccncc21`, the RP-LC retention time was 727 s.

Molecule `O=C(Cc1ccc(Cl)cc1)N1CC(n2cnnc2C2CC2)C1` registered an RP-LC retention time of 649 s.

Take `CCCCN(C)C(=O)C1CCN(c2nccc(C)n2)CC1`: the RP-LC retention time stood at 674 s.

The molecule `Cc1nc(-c2csc(S(=O)(=O)N3CCC(C(=O)NCCc4cccs4)CC3)c2)no1` came in with an RP-LC retention time of 860 s.

`CCCOC(=O)c1cnc2nc(C)ccc2c1NCc1ccc(OC)c(OC)c1`: the RP-LC retention time stood at 701 s.

The molecule `CNC(=O)N1CCCC(c2cccc(C(=O)NC(C)c3ccc(F)cc3)c2)C1` (stereo not given) returned an RP-LC retention time of 792 s.

As to `O=C(NCc1ccco1)C(=O)NCC(c1cccnc1)N1CCOCC1` (stereo not given), the RP-LC retention time came out at 568 s.

For `CCn1ccc2sc(C)c(C(=O)NCC3CCCCC3)c2c1=O`, the RP-LC retention time was determined as 884 s.

On to `O=c1n(Cc2ccccc2F)nc2c(S(=O)(=O)N3CCN(c4ccc(F)cc4)CC3)cccn12`, for which the RP-LC retention time worked out at 969 s.

`Cc1ccc(NC(=O)Cn2c(=O)cc(-c3nc(C4CC4)no3)c3ccccc32)cc1F` displayed an RP-LC retention time of 1020 s.

`CC(C)n1c(-c2cccc(C(=O)NCc3ccncc3)c2)nc2cccnc21` yielded an RP-LC retention time of 599 s.

`CC(C)(C)C1CCc2[nH]nc(C(=O)NC3CC3)c2C1` (stereo not given) gave an RP-LC retention time of 843 s.

Take `CCOC(=O)C1CCN(c2cc3c(cc2NC(=O)NC)n(C)c(=O)n3C)CC1`: the RP-LC retention time came out at 633 s.

`CC(C)CNS(=O)(=O)c1cccc2cnccc12` displayed an RP-LC retention time of 647 s.

With `COc1cc(CN2CCC3(CCC(CN4CCOCC4)O3)CC2)ccc1OCC(C)C` (stereo not given), the RP-LC retention time amounted to 598 s.

As to `Cn1cnc(S(=O)(=O)N2CCOc3ccc(NC(=O)C4CC4)cc3C2)c1`, the RP-LC retention time is 658 s.

`CCSc1nnc(NC(=O)CSc2nncn2C)s1` had an RP-LC retention time of 606 s.

For the molecule `O=C(c1ccoc1)N1CCCC(Nc2ncnc3c2CCC3)C1` (stereo not given), the RP-LC retention time was determined as 574 s.

`CC(C)CCNC(=O)N1CC(c2nc(-c3cccnc3)no2)C2(CCOCC2)C1` (stereo not given) yielded an RP-LC retention time of 725 s.

The molecule `CCc1nc2c(NC(=O)COC)cccn2n1` yielded an RP-LC retention time of 646 s.

In turn, `COc1ccc(C2Cn3cnc(C(=O)N4CCC(C(=O)NC5CCC(C)CC5)CC4)c3CO2)cc1` (stereo not given) registered an RP-LC retention time of 821 s.

The molecule `CCc1ccc(OCc2nc(CCN(C)C(=O)Cc3cccs3)no2)cc1` displayed an RP-LC retention time of 1000 s.

As to `COc1ccc(C(=O)NC2CCN(c3cc(-c4cccs4)[nH]n3)C2)cc1F` (stereo not given), the RP-LC retention time worked out at 720 s.

`COc1ccc(-c2c(C)noc2NC(C)=O)cc1S(=O)(=O)N1CCc2ccccc2C1` showed an RP-LC retention time of 807 s.

Regarding `Cc1ccc(Nc2c(-c3ccc(O)cc3)nc3ccc(Cl)cn23)cc1`, the RP-LC retention time worked out at 696 s.

`CCCCCn1c(CN(C)C(=O)c2ccco2)nc2ccccc21` registered an RP-LC retention time of 700 s.

Take `CCOC(=O)c1c(C)[nH]c(C(=O)N2CCCC(C(=O)NCc3cccc(Cl)c3)C2)c1C` (stereo not given): the RP-LC retention time came to 848 s.

With `Cc1ccc(-c2ccc3nnc(CCC(=O)NCc4ccccc4C(F)(F)F)n3n2)cc1`, the RP-LC retention time was found to be 794 s.

Molecule `O=c1ccn(-c2ccc(Cl)cc2)nc1-c1nc(-c2ccc3c(c2)OCO3)no1` gave an RP-LC retention time of 913 s.

`CC(C)Oc1ccc(CN2CCC3(CC2)CN(C)CC3c2nnc(C(C)C)o2)cc1` (stereo not given) had an RP-LC retention time of 577 s.

`CCN1c2ccccc2C(=O)NC12CCN(C(=O)c1ccc(F)c(F)c1)CC2`: the RP-LC retention time is 799 s.

For the molecule `CCn1cnc(S(=O)(=O)N2CCC(C(=O)NCCc3nc4ccc(C)cc4[nH]3)CC2)c1`, the RP-LC retention time stood at 589 s.

The molecule `Cc1ccc(-c2[nH]c3[nH]c(=O)[nH]c(=O)c3c2C2C(=O)N(C)c3ccccc32)cc1` (stereo not given) yielded an RP-LC retention time of 696 s.

Molecule `CN(C)c1cccc(-c2nc(C3CC(=O)N(c4ccc(Cl)cc4)C3)no2)c1` (stereo not given) gave an RP-LC retention time of 1110 s.

The molecule `Cc1ccc(S(=O)(=O)NC(=O)NC2=NC(C)(C)N(c3ccc(Cl)c(Cl)c3)C(N)=N2)cc1` displayed an RP-LC retention time of 733 s.

`Cc1nc(Nc2ncc3c(n2)CC(c2ccc(F)cc2)CC3=O)nc2c(C)cccc12` (stereo not given) had an RP-LC retention time of 746 s.

For the molecule `Cc1ccc2c(Nc3cccc(C(C)C)c3)c(C(=O)N3CCCC(C)C3)cnc2n1` (stereo not given), the RP-LC retention time worked out at 722 s.

`CCN1C(=O)c2cc(C(=O)N3CCN(c4ccccc4F)CC3)nn2CC1(C)C(=O)NC1CCCC1` (stereo not given) showed an RP-LC retention time of 840 s.

`O=C(Nc1cnc(N2CCOCC2)nc1)c1cccc(Br)c1` registered an RP-LC retention time of 828 s.

The molecule `COC(=O)c1cn(CC(=O)Nc2cc(F)ccc2F)c2nc(C)ccc2c1=O` registered an RP-LC retention time of 727 s.

The molecule `Cc1ccc2nc3c(c(C(=O)NCC(C)C)c2c1)CCC3` showed an RP-LC retention time of 650 s.

Regarding `O=S(=O)(c1ccc(-c2noc(-c3ccc(F)c(F)c3)n2)cc1)N1CCCC1`, the RP-LC retention time came out at 1210 s.

With `CCOc1ccc(-c2csc3c(=O)n(Cc4ccc(N5CCCC5=O)cc4)cnc23)cc1OCC`, the RP-LC retention time came out at 929 s.

In turn, `Cc1nc2ccccc2nc1SCC(=O)c1ccccc1` had an RP-LC retention time of 970 s.

Consider `CCCC(=O)Nc1ccc2c(c1)CN(C(=O)C1CC1)C(C(=O)N(C)C)C2` (stereo not given), for which the RP-LC retention time worked out at 709 s.

`O=C(C1CC1)N1CCN(c2nc(CN3CCCCCC3)cs2)CC1` displayed an RP-LC retention time of 1100 s.

`Cc1ccc(Cn2c(=O)c(SCC(=O)NC3CC3)nc3ccccc32)cc1` showed an RP-LC retention time of 893 s.

Molecule `Cc1csc(-c2csc(S(=O)(=O)N3CCN(c4cccc(C)c4C)CC3)c2)n1` had an RP-LC retention time of 1310 s.

With `COC(=O)c1c(C)[nH]c(C(=O)N2CCC(CC(=O)N3CCCCCC3)CC2)c1C`, the RP-LC retention time was found to be 715 s.

Molecule `CCOc1ccccc1-c1noc(CN2N=NC3C(=O)N(c4ccc(OC)c(OC)c4)C(=O)C32)n1` (stereo not given) came in with an RP-LC retention time of 868 s.

`CC1=C(c2ccccc2)S(=O)(=O)N=C1N1CCCN(C(=O)CCC2CCCC2)CC1` had an RP-LC retention time of 946 s.

In turn, `O=C(Nc1ccc2c(c1)OCO2)c1c(O)c2ccccc2n(-c2ccccc2)c1=O` came in with an RP-LC retention time of 858 s.

Turning to `O=C(Nc1ccc2c(c1)OCCO2)N1CCCC1c1nc(CCOCC2CC2)no1` (stereo not given), the RP-LC retention time worked out at 788 s.

On to `COc1ccc(N2CC(c3noc(-c4ccccc4OC)n3)CC2=O)cc1` (stereo not given), for which the RP-LC retention time was determined as 858 s.

As for `Fc1ccc(Cn2cc(-c3noc(-c4ccccc4)n3)nn2)cc1`, the RP-LC retention time came to 994 s.

Take `C=CCN1C(=O)COc2ccc(-c3csc(NC(=O)C(C)C)n3)cc21`: the RP-LC retention time amounted to 895 s.

`COc1cc(NS(=O)(=O)c2cc(-c3cnn4c(C)cc(C)nc34)ccc2OC)cc(OC)c1` registered an RP-LC retention time of 949 s.

In the case of `Cc1cccc(CC(=O)N2C[C@@H]3C[C@H](NC(=O)c4cccs4)[C@H]2C3)c1`, the RP-LC retention time is 787 s.

`CCN1C(=O)Cc2cc(C(=O)NCc3cccs3)ccc21` came in with an RP-LC retention time of 704 s.

`O=C(NCc1cc(F)ccc1F)C1CCc2nc(N3CCCCC3)ncc2C1` (stereo not given): the RP-LC retention time worked out at 743 s.

On to `CCOc1ccc(C(=O)N2CCN(c3cc(CC)n4cnnc4n3)CC2)cc1`, for which the RP-LC retention time was determined as 742 s.

The molecule `Cc1nc(N2CCOCC2)c2c(C(=O)Nc3cc(Cl)ccc3C)c(C)oc2n1` returned an RP-LC retention time of 869 s.

For `CC1CCCCC1NC(=O)c1sc2ncccc2c1-n1cccc1` (stereo not given), the RP-LC retention time is 1260 s.
